Laboratory results: patent publication US20250171459A1, “2-METHYL-4',5'-DIHYDROSPIRO[PIPERIDINE-4,7'-THIENO[2,3-C]PYRAN] DERIVATIVES AS INHIBITORS OF APOL1 AND METHODS OF USING SAME” (Vertex Pharmaceuticals Incorporated, priority 2022, published 2025)
pIC50: −log10 of the molar value.

These compounds were tested against T1, APOL1 (Homo sapiens, UniProt O14791) (assay: MultiTox-Fluor Multiplex Cytotoxicity Assay in tet-inducible APOL1 T-REx-HEK293 cells (cell rescue, ratio of dead to live cells)). Conditions: tet-inducible transgenic APOL1 T-REx-HEK293 cell lines, 50 ng/mL tet, 24 hours; read-out: IP50 (i.e., IC50 for cell proliferation).
T1 sequence (O14791 1-398 S342G/I384M): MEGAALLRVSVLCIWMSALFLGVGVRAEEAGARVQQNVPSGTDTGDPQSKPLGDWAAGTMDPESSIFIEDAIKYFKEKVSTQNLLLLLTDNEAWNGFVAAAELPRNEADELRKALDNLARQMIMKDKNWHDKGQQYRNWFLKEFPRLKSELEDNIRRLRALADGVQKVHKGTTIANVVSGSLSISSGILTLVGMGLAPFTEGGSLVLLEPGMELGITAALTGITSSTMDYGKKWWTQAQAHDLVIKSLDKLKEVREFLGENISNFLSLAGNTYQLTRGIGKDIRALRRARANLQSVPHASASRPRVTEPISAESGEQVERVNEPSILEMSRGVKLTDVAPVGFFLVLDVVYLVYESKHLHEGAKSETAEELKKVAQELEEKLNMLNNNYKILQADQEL
Type: cell-based
Summary of the method: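 T-REx-HEK293 cells with tet-inducible APOL1 were treated with compound (10 μM top, 10-point 3-fold dilution, duplicate) plus 50 ng/mL tetracycline for 24 h at 37° C, in DMEM with 2% tet-free FBS. MultiTox-Fluor protease signals gave a dead/live ratio, normalized to no tet (100% viability) and tet alone (0%).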
Compound CCc1cc2c(s1)CCO[C@@]21CCN(CC(=O)OC)[C@@H](C)C1 [Compound 283] has a pIC50 of 6.00 to 6.30. C[C@H]1C[C@@]2(CCN1Cc1cnn(CC(O)CC3(O)COC3)c1)OCCc1c2sc(C(F)(F)F)c1CO (stereo partly shown) [Compound 945] gave a pIC50 of over 7.00. CCc1cc2c(s1)CCOC21CCN(Cc2cn(CC(=O)NCCC(F)(F)F)nn2)CC1 [Compound 1096] was tested, and the pIC50 was 6.00 to 6.30. C[C@H]1C[C@@]2(CCN1Cc1cnn(CC(=O)N(C)C)c1)OCCc1cc(Cl)sc12 [Compound 700] showed a pIC50 of over 7.00. CCc1cc2c(s1)CCOC21CCN(Cc2ccc(C(=O)NC3CC(C)(O)C3)nc2)CC1 (stereo not shown) [Compound 1064] gave a pIC50 of 6.30 to 7.00. CCc1cc2c(s1)CCO[C@@]21CCN(CC2CN(C(=O)C3CNC(=O)O3)C2)[C@@H](C)C1 (stereo partly shown) [Compound 478] showed a pIC50 of 6.30 to 7.00. For CCc1cc2c(s1)CCO[C@@]21CCN(C[C@H]2C[C@@H](NC(=O)CC3CCC(F)(F)CC3)C2)[C@@H](C)C1 [Compound 314], the pIC50 was over 7.00. For C[C@H]1C[C@@]2(CCN1CC(O)c1ccc(F)cc1)OCCc1cc(CC(F)F)sc12 (stereo partly shown) [Compound 602], the pIC50 was over 7.00. C[C@H]1C[C@@]2(CCN1C[C@@H](O)C(N)=O)OCCc1sc(Cl)cc12 [Compound 509, (2R)-3-[(2′S,4R)-2-chloro-2′-methyl-spiro[6,7-dihydrothieno[3,2-c]pyran-4,4′-piperidine]-1′-yl]-2-hydroxy-propanamide] was tested, and the pIC50 was 6.30 to 7.00. Work on C[C@H]1C[C@@]2(CCN1Cc1cnn(CC3CC4(CCOCC4)C(=O)O3)c1)OCCc1c2sc(C(F)(F)F)c1CO (stereo partly shown) [Compound 984] yielded a pIC50 of over 7.00. With Cc1cncc(CN2CC[C@]3(C[C@@H]2C)OC[C@H](O)c2cc(Cl)sc23)c1 [Compound 809] the pIC50 was 6.30 to 7.00. Compound CCc1cc2c(s1)CCO[C@@]21CCN(C[C@H]2C[C@@H](NS(=O)(=O)CCO)C2)[C@@H](C)C1 [Compound 388, N-[3-[[(2′S,4R)-2-ethyl-2′-methyl-spiro[6,7-dihydrothieno[3,2-c]pyran-4,4′-piperidine]-1′-yl]methyl]cyclobutyl]-2-hydroxy-ethanesulfonamide] has a pIC50 of over 7.00. C[C@H]1C[C@@]2(CCN1Cc1ccc(F)cc1)OCCc1c2sc(Cl)c1CO [Compound 755] showed a pIC50 of 6.30 to 7.00. C[C@H]1C[C@@]2(CCN1Cc1cnn(C3CN(S(C)(=O)=O)C3)c1)OC[C@@H](O)c1cc(C(F)(F)F)sc12 [Compound 884] showed a pIC50 of over 7.00. C[C@@H]1C[C@]2(CCN1Cc1cn(CC(O)C(C)(C)O)nn1)OCCc1cc(Cl)sc12 (stereo in doubt) [Compound 626, 1-(4-(((2R,4S)-2′-chloro-2-methyl-4′,5′-dihydrospiro[piperidine-4,7′-thieno[2,3-c]pyran]-1-yl)methyl)-1H-1,2,3-triazol-1-yl)-3-methylbutane-2,3-diol] was tested, and the pIC50 was over 7.00. C[C@H]1C[C@@]2(CCN1Cc1cnn(CC3(O)CCOCC3)c1)OCCc1c2sc(C(F)(F)F)c1CO [Compound 943, 4-[[4-[[(2′S, 7R)-3-(hydroxymethyl)-2′-methyl-2-(trifluoromethyl)spiro[4,5-dihydrothieno[2,3-c]pyran-7,4′-piperidine]-1′-yl]methyl]pyrazol-1-yl]methyl]tetrahydropyran-4-ol] was tested, and the pIC50 was over 7.00. Compound C[C@H]1C[C@@]2(CCN1Cc1cnn(CC3CCOCC3)c1)OCCc1cc(Cl)sc12 [Compound 706] has a pIC50 of over 7.00. Compound CC1CO[C@@]2(CCN(Cc3cn(CCS(C)(=O)=O)nn3)[C@@H](C)C2)c2cc(C(F)(F)F)sc21 (stereo partly drawn) [Compound 534, (2S,4R)-2,7′-dimethyl-1-((1-(2-(methylsulfonyl)ethyl)-1H-1,2,3-triazol-4-yl)methyl)-2′-(trifluoromethyl)-6′,7′-dihydrospiro[piperidine-4,4′-thieno[3,2-c]pyran]] has a pIC50 of over 7.00. For CCc1cc2c(s1)CCOC21CCN(Cc2cn(CC3(O)CCCC3)nn2)CC1 [Compound 1082], the pIC50 was 6.30 to 7.00. C[C@H]1C[C@@]2(CCN1Cc1cnn(CC(O)C3(O)CCC3)c1)OC[C@@H](O)c1cc(C(F)(F)F)sc12 (stereo partly shown) [Compound 979] gave a pIC50 of over 7.00. With CCOC1CO[C@@]2(CCN(Cc3cnn(CCS(C)(=O)=O)c3)[C@@H](C)C2)c2sc(Cl)cc21 (stereo partly shown) [Compound 844] the pIC50 was 6.30 to 7.00. With C[C@H]1C[C@@]2(CCN1Cc1ccccn1)OC[C@H](O)c1cc(Cl)sc12 [Compound 811] the pIC50 was 6.00 to 6.30. C[C@H]1C[C@@]2(CCN1Cc1cccc(Cl)c1O)OCCc1c2sc(Cl)c1CO [Compound 712, 2-chloro-6-[[(2′S, 7R)-2-chloro-3-(hydroxymethyl)-2′-methyl-spiro[4,5-dihydrothieno[2,3-c]pyran-7,4′-piperidine]-1′-yl]methyl]phenol] gave a pIC50 of 6.00 to 6.30. C[C@H]1C[C@@]2(CCN1Cc1cccnc1)OCCc1cc(Cl)sc12 [Compound 639] was tested, and the pIC50 was over 7.00. CCc1cc2c(s1)CCO[C@@]21CCN(C[C@H]2C[C@@H](NC(=O)OCc3ccccc3)C2)[C@@H](C)C1 [Compound 380] showed a pIC50 of 6.30 to 7.00. Work on Cc1ncc(CN2CC[C@]3(C[C@@H]2C)OCCc2c3sc(Cl)c2CO)cn1 [Compound 738] yielded a pIC50 of 6.30 to 7.00. In the case of CCc1cc2c(s1)C(CC)COC21CCN(Cc2cn(CCS(C)(=O)=O)nn2)CC1 (stereo not shown) [Compound 1182, 2,7-diethyl-1′-[[1-(2-methylsulfonylethyl)triazol-4-yl]methyl]spiro[6,7-dihydrothieno[3,2-c]pyran-4,4′-piperidine]], the pIC50 was 6.00 to 6.30. Compound CCCOC(=O)N[C@H]1C[C@@H](CN2CC[C@]3(C[C@@H]2C)OCCc2sc(CC)cc23)C1 [Compound 371] has a pIC50 of over 7.00. In the case of CCc1cc2c(s1)CCO[C@@]21CCN(Cc2cn(CCS(C)(=O)=O)nn2)[C@H](C)C1 [Compound 9, (2′R,4R)-2-ethyl-2′-methyl-1′-[[1-(2-methylsulfonylethyl)triazol-4-yl]methyl]spiro[6,7-dihydrothieno[3,2-c]pyran-4,4′-piperidine]], the pIC50 was 6.00 to 6.30. With CCc1cc2c(s1)CCO[C@@]21CCN(CC(O)C(F)(F)F)[C@@H](C)C1 (stereo partly shown) [Compound 243] the pIC50 was 6.30 to 7.00. In the case of C[C@H]1C[C@@]2(CCN1Cc1cnccn1)OCCc1c2sc(Cl)c1CO [Compound 737], the pIC50 was 6.00 to 6.30. Compound C#CCN1CC[C@]2(C[C@@H]1C)OCCc1cc(Cl)sc12 [Compound 625, (2′S, 7R)-2-chloro-2′-methyl-1′-prop-2-ynyl-spiro[4,5-dihydrothieno[2,3-c]pyran-7,4′-piperidine]] has a pIC50 of 6.00 to 6.30. COc1cnc(CN2CC[C@]3(C[C@@H]2C)OC[C@H](O)c2cc(Cl)sc23)cn1 [Compound 783] gave a pIC50 of 6.30 to 7.00. Work on C[C@H]1C[C@@]2(CCN1Cc1cnn(CC3(O)CCCOC3)c1)OCCc1c2sc(C(F)(F)F)c1CO (stereo partly shown) [Compound 952] yielded a pIC50 of over 7.00. CCc1cc2c(s1)CCO[C@@]21CCN(CC2CN(C(=O)C3CCNC3=O)C2)[C@@H](C)C1 (stereo partly shown) [Compound 484] showed a pIC50 of over 7.00. Compound CCc1cc2c(s1)CCO[C@@]21CCN(C[C@H]2C[C@@H](NS(=O)(=O)Cc3cccc(C)c3)C2)[C@@H](C)C1 [Compound 393] has a pIC50 of over 7.00. In the case of C[C@H]1C[C@@]2(CCN1Cc1cnn(CCS(C)(=O)=O)c1)OCCc1c2sc(C(F)F)c1CO [Compound 764, [(2′S, 7R)-2-(difluoromethyl)-2′-methyl-1′-[[1-(2-methylsulfonylethyl)pyrazol-4-yl]methyl]spiro[4,5-dihydrothieno[2,3-c]pyran-7,4′-piperidine]-3-yl]methanol], the pIC50 was over 7.00. Work on Cc1cc2c(s1)CCO[C@@]21CCN(C2CCCC2O)[C@@H](C)C1 (stereo partly shown) [Compound 505] yielded a pIC50 of over 7.00. Work on CCc1cc2c(s1)[C@]1(CCN(Cc3cnn(CCS(C)(=O)=O)c3)[C@@H](C)C1)OCC2O (stereo partly drawn) [Compound 1037, (2′S, 7R)-2-ethyl-2′-methyl-1′-[[1-(2-methylsulfonylethyl)pyrazol-4-yl]methyl]spiro[4,5-dihydrothieno[2,3-c]pyran-7,4′-piperidine]-4-ol] yielded a pIC50 of over 7.00. CCc1cc2c(s1)CCO[C@@]21CCN(C[C@H]2C[C@@H](NC(=O)c3cccc4c3OCCC4)C2)[C@@H](C)C1 [Compound 311] gave a pIC50 of 6.30 to 7.00. For CNC(=O)c1cccc(CN2CC[C@]3(C[C@@H]2C)OCCc2cc(Cl)sc23)c1 [Compound 652], the pIC50 was 6.30 to 7.00. Compound CCc1cc2c(s1)CCO[C@@]21CCN(CC2CN(C(=O)[C@H](C)NC(C)=O)C2)[C@@H](C)C1 [Compound 481] has a pIC50 of 6.30 to 7.00. For CCc1cc2c(s1)C(C)COC21CCN(Cc2cn(CCS(C)(=O)=O)nn2)[C@@H](C)C1 (stereo partly shown) [Compound 535], the pIC50 was over 7.00. Cc1nccn1-c1ccc(CN2CC[C@]3(C[C@@H]2C)OCCc2cc(Cl)sc23)cc1 [Compound 671] was tested, and the pIC50 was over 7.00. With COC1CO[C@@]2(CCN(Cc3cnn(CCS(C)(=O)=O)c3)[C@@H](C)C2)c2sc(Cl)cc21 (single isomer, unassigned) [Compound 842, (2′S, 7R)-2-chloro-4-methoxy-2′-methyl-1′-[[1-(2-methylsulfonylethyl)pyrazol-4-yl]methyl]spiro[4,5-dihydrothieno[2,3-c]pyran-7,4′-piperidine]] the pIC50 was over 7.00. Work on CC(O)Cn1cc(CN2CC[C@]3(C[C@@H]2C)OCCc2c3sc(C(F)(F)F)c2CO)cn1 (stereo partly shown) [Compound 931] yielded a pIC50 of over 7.00. Work on CCc1cc2c(s1)CCO[C@@]21CCN(CC2CN(C(=O)C(C)S(C)(=O)=O)C2)[C@@H](C)C1 (stereo partly shown) [Compound 432] yielded a pIC50 of over 7.00. CC(=O)Nc1ccc(CN2CC[C@]3(C[C@@H]2C)OC[C@H](O)c2cc(Cl)sc23)cc1 [Compound 799] was tested, and the pIC50 was over 7.00. For CCc1cc2c(s1)C[C@@H](C)OC21CCN(Cc2cnn(C)c2)CC1 [Compound 1176], the pIC50 was 6.00 to 6.30.
